The values below come from patent US6096909A, “Taxoid anti-tumor agents and pharmaceutical compositions thereof” (The Research Foundation of State University of New York, priority 1997, dated 2000).

The subject of series [1] is A121 human ovarian, A549 human non-small cell lung, HT-29 human colon and MCF7 human breast cancer cells. In words: Cytotoxicity against human cancer cell panel, stated jointly for the four lines.
For series [2], the system named is A121 (ovarian carcinoma). Nature of the series: Tumor cell growth inhibition (SRB), 72 h. It counts as cell-based. As to conditions: Homo sapiens, read-out: concentration of compound which inhibit 50% (IC50) of the growth of human tumor cell line.
The test system of series [3] is A549 (non-small cell lung carcinoma). In words: Tumor cell growth inhibition (SRB), 72 h. It counts as cell-based. As to conditions: Homo sapiens, read-out: concentration of compound which inhibit 50% (IC50) of the growth of human tumor cell line.
The test system of series [4] is HT-29 (colon carcinoma). Nature of the series: Tumor cell growth inhibition (SRB), 72 h. It counts as cell-based. The settings on record: Homo sapiens, read-out: concentration of compound which inhibit 50% (IC50) of the growth of human tumor cell line.
The test system of series [5] is MCF7 (mammary carcinoma). Nature of the series: Tumor cell growth inhibition (SRB), 72 h. The class given is cell-based. The settings on record: Homo sapiens, read-out: concentration of compound which inhibit 50% (IC50) of the growth of human tumor cell line.
The conditions of series [6]: recent report on clinical trials; cited from earlier work.
The test system of series [7] is breast and lung cancers. The settings on record: United States, Europe, and Japan; cited from earlier work.
For series [8], the system named is drug-resistant tumors, e.g., adriamycin-resistant breast cancer. As to conditions: cited from earlier work.
The conditions of series [9]: relative to paclitaxel; cited from earlier work.
The conditions of series [10]: relative to paclitaxel; cited from earlier work. This is another data set of the same source.
Series [11] concerns MCF7-R (mammary carcinoma cells 180-fold resistant to adriamycin). Nature of the series: Tumor cell growth inhibition (SRB), 72 h. The class given is cell-based, human. As to conditions: for IC50: Homo sapiens, MCF7R, read-out: concentration of compound which inhibit 50% (IC50) of the growth of human tumor cell line.
Series [12] concerns human colon carcinoma cells HCT-116. As to conditions: cited from earlier work.
Where [13] appears, read: A121 (ovarian), 72 h drug exposure, mean of at least three experiments.
Where [14] appears, read: A549 (NSCLC), 72 h drug exposure, mean of at least three experiments.
Setting [15] is: HT-29 (colon), 72 h drug exposure, mean of at least three experiments.
[16] abbreviates: MCF7 (breast), 72 h drug exposure, mean of at least three experiments.

Read-outs that look alike come from different tables or passages of the source.

With `CC(=O)O[C@@]12CO[C@@H]1C[C@H](O)[C@@]1(C)C(=O)[C@H](O)C3=C(C)[C@@H](OC(=O)[C@H](O)[C@H](C=Cc4ccccc4)NC(=O)OC(C)(C)C)C[C@@](O)([C@@H](OC(=O)c4ccccc4)[C@H]21)C3(C)C` [3'-dephenyl-3'-(2-phenylethenyl)docetaxel], the decreased cytotoxicity in [1] (fold decrease) is on record as more than 20 times.

On to `CC(=O)O[C@@]12CO[C@@H]1C[C@H](O)[C@@]1(C)C(=O)[C@H](O)C3=C(C)[C@@H](OC(=O)[C@H](O)[C@H](CC(C)(C)C)NC(=O)OC(C)(C)C)C[C@@](O)([C@@H](OC(=O)c4ccccc4)[C@H]21)C3(C)C` [3'-dephenyl-3'-neopentyldocetaxel], for which the cytotoxicity entry in series [1] (in words) is given as “virtually not cytotoxic”.

In the case of `CC(=O)O[C@@]12CO[C@@H]1C[C@H](O)[C@@]1(C)C(=O)[C@H](O)C3=C(C)[C@@H](OC(=O)[C@H](O)[C@@H](NC(=O)OC(C)(C)C)c4ccccc4)C[C@@](O)([C@@H](OC(=O)c4ccccc4)[C@H]21)C3(C)C` [Docetaxel], the IC50 in series [2] (setting [13]) came out at 1.2 nM; in series [3] (setting [14]), 1 nM; in series [4] (setting [15]) it was 1.2 nM; in [5] (setting [16]) it was 1 nM. The “side effects in clinical trials” value in [6] is “mouth sores and plunge in white blood cells”. Besides, in series [7], the “activity in phase II and III clinical trials” value is “excellent activities, especially against breast and lung cancers”. Also, the “activity against drug-resistant tumors” value in [8] is “only a weak activity”. In series [9], the “antitumor activity compared with paclitaxel” value is recorded as “superior to paclitaxel”. The “bioavailability compared with paclitaxel” value in series [10] was “better bioavailability”.

In the case of `CC(=O)O[C@H]1C(=O)[C@@]2(C)[C@H]([C@H](OC(=O)c3ccccc3)[C@]3(O)C[C@H](OC(=O)[C@H](O)[C@@H](NC(=O)c4ccccc4)c4ccccc4)C(C)=C1C3(C)C)[C@]1(OC(C)=O)CO[C@@H]1C[C@@H]2O` [Paclitaxel], the IC50 was 6.1 nM in [2] (A121, 72 h); 3.2 nM in series [4] (HT-29, 72 h); 1.7 nM in series [5] (MCF7, 72 h); 300 nM in series [11] (72 h). Besides, the “side effects in clinical trials” value in [6] was “nerve damage, muscle pain or disturbances in heart rhythm”. In [8], the “activity against drug-resistant tumors” value is “only a weak activity”.

On to `CC(=O)O[C@H]1C(=O)[C@@]2(C)[C@H]([C@H](OC(=O)c3ccccc3)[C@]3(O)C[C@H](OC(=O)[C@H](O)[C@H](C=C(C)C)NC(=O)c4ccccc4)C(C)=C1C3(C)C)[C@]1(OC(C)=O)CO[C@@H]1C[C@@H]2O` [RAH-1, 3'-dephenyl-3'-isobutenylpaclitaxel], for which the IC50 in series [2] (A121, 72 h) was found to be 1.4 nM; in [3] (A549, 72 h), 0.45 nM; in [4] (HT-29, 72 h), 0.96 nM; in series [5] (MCF7, 72 h) it was 0.54 nM. For the same molecule, the “times better activity than docetaxel” value in series [12] (relative to docetaxel) is 7 times. Besides, the “times better activity than paclitaxel” value in series [12] (relative to paclitaxel) was 4 times.

With `CC=C[C@H](NC(=O)OC(C)(C)C)[C@@H](O)C(=O)O[C@H]1C[C@@]2(O)[C@@H](OC(=O)c3ccccc3)[C@@H]3[C@]4(OC(C)=O)CO[C@@H]4C[C@H](O)[C@@]3(C)C(=O)[C@H](OC(C)=O)C(=C1C)C2(C)C` [Taxoid Ia], the IC50 was 0.9 nM in series [2] (setting [13]); 0.54 nM in series [3] (setting [14]); 0.76 nM in [4] (setting [15]); 0.51 nM in series [5] (setting [16]); 14 nM in series [11] (MCF7-R, 72 h drug exposure, mean of at least three experiments). Further, the “times better activity than docetaxel” value in series [11] (MCF7-R, relative to docetaxel) stood at 17 times. In series [11] (MCF7-R, relative to paclitaxel), the “times better activity than paclitaxel” value turned out to be 21 times. In series [1] (relative to paclitaxel and docetaxel), the “activity spectrum compared with paclitaxel and docetaxel” value is on record as “considerably better activity spectrum”.
